Paper PMC5819394 (Proceedings of the National Academy of Sciences of the …, 2018)
Like-named read-outs stand apart in the source and are kept apart here.

Test system: GenL
Format: biochemical, Micromonospora echinospora

Row | Km (SAM as methyl donor, integrated Michaelis-Menten fit) [µM] | Structure (SMILES) | Km [µM]
1 | 77.8 ± 8 | CN[C@@H]1[C@@H](O)[C@@H](O[C@@H]2[C@@H](O)[C@H](O[C@H]3O[C@H]([C@@H](C)N)CC[C@H]3N)[C@@H](N)C[C@H]2N)OC[C@]1(C)O [C2] | 
2 |  | CN[C@@H]1[C@@H](O)[C@@H](O[C@@H]2[C@@H](O)[C@H](O[C@H]3O[C@H](CN)CC[C@H]3N)[C@@H](N)C[C@H]2N)OC[C@]1(C)O [C1a] | 347 ± 86
